Here are results for 14 compounds from US5025016A, “Pyrimidine-thioalkyl pyridine derivatives, medicaments containing these compounds, and method of treatment” (Ludwig Heumann & Co. GmbH, priority 1983, dated 1991).

Counter-ions that a name gives are not always drawn. Some results are limits rather than exact numbers.

Experiment [1] has as its system tracheal secretion of phenol red. The experiment is described as follows: Secretion-stimulating activity: tracheal secretion of phenol red after oral administration to female mice. The format is in vivo. Particulars: Mus musculus, calculated from the regression curves. As to the method:
Bronchosecretolytic compounds promote the tracheal secretion of phenol red (Chronic Bronchitis Research Group, Chinese Medical Journal 3: 259, 1977). The increase in the tracheal secretion of phenol red is a measure of bronchosecretolytic activity. This activity of the test substances was investigated after oral administration to female mice. The ED50 -values shown in Table 1 were calculated from the regression curves.

Experiment [2] has as its system carrageenin-induced inflammation (oedema formation). Description: Antiphlogistic activity: carrageenin-oedema test, right-hand rear paw. Particulars: 100 mg/kg i.g., 30 minutes before injection of the carrageenin; male rats. In kind it is in vivo. As to the method:
The antiphlogistic properties of the compounds according to the invention were determined by the carrageenin-oedema test in male rats (average weight 130-160 g, SIV 50, Messrs Ivanovas, Kisslegg). The inhibition of the carrageenin-induced inflammation (oedema formation) was measured on the right-hand rear paw. The test substances were administered intragastrally by esophagus probe 30 minutes before injection of the carrageenin. The results are shown in Table II (Higgs et.al., European Journal of Pharmacology 66, 81-86 (1980)).

As for `Nc1c(Br)cc(Br)cc1CN[C@H]1CC[C@H](O)CC1` [Ambroxol, trans-4-(2-amino-3,5-dibromobenzyl)-aminocyclohexanol, reference compound], the 50% effective dose (ED50) – broadly, the dose that gives a 50% effect, or the effect in half of the subjects – in experiment [1] is 250 mg/kg. Same read-out and setting: the figure for `Nc1ccnc(SCc2cccnc2)n1` [Example 1, 4-amino-2-(pyridyl-3-methylthio)-pyrimidine] is 5 mg/kg. Regarding `Oc1ccnc(SCc2cccnc2)n1` [Example 2, 4-hydroxy-2-(pyridyl-3-methylthio)-pyrimidine], in experiment [1], the ED50 was 100 mg/kg. Further, the “Inhibition in % (carrageenin-induced oedema formation)” value in experiment [2] was 45%. Consider `Nc1cc(O)nc(SCc2cccnc2)n1` [Example 3, 4-amino-6-hydroxy-2-(pyridyl-3-methylthio)-pyrimidine], for which the ED50 in experiment [1] is 2 mg/kg. `Nc1cc(N)nc(SCc2cccnc2)n1` [Example 4, 4,6-diamino-2-(pyridyl-3-methylthio)-pyrimidine succinate]: in experiment [1], the ED50 is above 100 mg/kg. In addition, the “Inhibition in % (carrageenin-induced oedema formation)” value in experiment [2] is on record as 30%.

With `Cc1cc(O)nc(SCc2cccnc2)n1` [Example 5, 4-hydroxy-6-methyl-2-(pyridyl-3-methylthio)-pyrimidine], the ED50 in experiment [1] is 15 mg/kg.

For the compound `Nc1cc(O)nc(SCc2ccc(Cl)nc2)n1` [Example 6, 4-amino-6-hydroxy-2-(pyridyl-6-chloro-3-methylthio)-pyrimidine], in experiment [1], the median effective dose (ED50) is 2 mg/kg. In the case of `CC(Sc1ncccn1)c1cccnc1` (stereo not shown) [Example 7, 2-(pyridyl-3-(2-ethylthio)-pyrimidine oxalate], the ED50 in experiment [1] was 15 mg/kg.

On to `Cc1ccc(C(C)Sc2ncccn2)cn1` (stereo not shown) [Example 8], for which the ED50 in experiment [1] is above 100 mg/kg. For `[O-][S+](Cc1cccnc1)c1ncccn1` (stereo not shown) [Example 9, 2-(pyridyl-3-methylsulfinyl)-pyrimidine hydrochloride], in experiment [1], the median effective dose (ED50) is 2 mg/kg. Still for that read-out and setting: the figure for `[O-][S+](Cc1ccncc1)c1ncccn1` (stereo not shown) [Example 10, 2-(pyridyl-4-methylsulfinyl)-pyrimidine hydrochloride] is 100 mg/kg; for `Cc1ccnc([S+]([O-])Cc2cccnc2)n1` (stereo not shown) [Example 11, 4-methyl-2-(pyridyl-3-methylsulfinyl)-pyrimidine oxalate] it is 10 mg/kg; for `C[n+]1cccc(CSc2ncccn2)c1` [Example 12, 2-(3-methylthio-1-methylpyridinium)-pyrimidine iodide] it is 1 mg/kg. The same measure, in the same setting: the figure for `CC[n+]1cccc(CSc2ncccn2)c1` [Example 13, 2-(3-methylthio-1-ethylpyridinium)-pyrimidine iodide] is 70 mg/kg.
